These results are taken from patent US12404289B2 (Gilead Sciences, Inc., priority 2020, dated 2025).

Read-outs that look alike come from different tables or passages of the source.

Holding throughout (type): cell-based
Series [1] deals with Respiratory syncytial virus (RSV) strain A2. Put plainly: RSV antiviral assay (HEp-2, 96 well). The following applies: Table 1.
The next series deals with HEp-2 cells. Put plainly: CC50 assay (cytopathology in HEp-2 cells). Particulars: HEp-2 cells, 4 days, CellTiter-Glo; Table 1; read-out: RSV CC50. An outline of the steps:
(§1)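 HEp-2 cells (3×10^3/well) received three-fold compound dilutions and were incubated 4 days at 37 °C. Viability was read by CellTiter-Glo luminescence, normalised to untreated (100%) and 5 µM puromycin (0%) controls. CC50 is the concentration reducing viability by 50%, from non-linear regression.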

The subject of another series is SARS-CoV-2. Put plainly: SARS-CoV-2 antiviral assay (A549-hACE2, Nano luciferase). Particulars: A549-hACE2 cells, SARS-CoV2-Nano, MOI 0.025, 48 h.
In series [2] the test system is Recombinant respiratory syncytial virus expressing the firefly luciferase protein (RSV-Fluc). The series can be described thus: microbe, parasite or virus in culture. Particulars: human respiratory syncytial virus, NHBE, 72 h, read-out: EC50 RSVFluc NHBE 96, NHBE cells, RSV-Fluc, MOI of 0.1, three days, 96 well; Table 4.
Series [3] relates to Respiratory syncytial virus recombinant with luciferase (RSV-Luc5). Put plainly: microbe, parasite or virus in culture. The following applies: human respiratory syncytial virus, HEp-2, 72 h, read-out: EC50 RSVFluc-Hep2 384, HEp-2 cells, RSV-Luc5, MOI=0.5, 3 days, 384 well, One-Glo; Table 1.
The nature of series [4]: CC50 assay (cytopathology in HEp-2 cells). The following applies: human, HEp-2 cells, 4 days, CellTiter-Glo; Table 1; read-out: RSV CC50. An outline of the steps: as §1
In series [5] the test system is Respiratory syncytial virus (RSV) strain A2. Put plainly: Hep-2 RSV2 384-well assay (EC50-HEP2-384). The following applies: human respiratory syncytial virus, HEp-2, 96 h, HEp-2 cells, RSV A2, MOI=4, 4 days, Table 1.
[6] abbreviates: human respiratory syncytial virus, HEp-2, 96 h, read-out: EC50-RSV-HEP-2-96, HEp-2 cells, RSV A2, MOI=4, 4 days, 96 well, CellTiter-Glo.

For the compound `CCC(CC)COC(=O)[C@H](C)NP(=O)(OC[C@H]1O[C@@](C#N)(c2ccc3c(N)ncnn23)[C@H](O)[C@@H]1O)Oc1cc(C)ccc1C(C)C` (single isomer, unassigned) [Example 26b], the EC50 in series [1] (read-out: EC50-RSV-HEP-2-96, HEp-2 cells, RSV A2, MOI=4, 4 days, 96 well, CellTiter-Glo) stood at 0.603 µM. The CC50 in the series with HEp-2 cells is 2.4 µM.
`CCC(CC)COC(=O)[C@H](C)NP(=O)(OC[C@H]1O[C@@](C#N)(c2ccc3c(N)ncnn23)[C@H](O)[C@@H]1O)Oc1cc(C)ccc1C(C)C` (single isomer, unassigned) [Example 26a]: in series [1] (setting [6]), the concentration for a half-maximal effect (EC50) worked out at 1.16 µM. For the same compound, the 50% cytotoxic concentration (CC50) in the series on HEp-2 cells was over 45 µM.
As for `C[C@H](NP(=O)(OC[C@H]1O[C@@](C#N)(c2ccc3c(N)ncnn23)[C@H](O)[C@@H]1O)Oc1ccc(C(C)(C)C)cc1)C(=O)OC1CC2(CCC2)C1` (stereo partly drawn) [Example 29, Spiro[3.3]heptan-2-yl (2S)-2-[[[(2R,3S,4R,5R)-5-(4-aminopyrrolo[2,1-f][1,2,4]triazin-7-yl)-5-cyano-3,4-dihydroxy-tetrahydrofuran-2-yl]methoxy-(4-tert-butylphenoxy)phosphoryl]amino]propanoate], the 50% effective concentration (EC50) turned out to be 0.123 µM with SARS-CoV-2 (Table 4, read-out: EC50 SARS CoV2); 0.0651 µM in the series with SARS-CoV-2 (Severe acute respiratory syndrome coronavirus 2, 48 h, Table 1, read-out: SARS-CoV-2 EC50); 0.00393 µM in series [2]; 0.0107 µM in series [1] (setting [6]); 0.0369 µM in series [3]; 0.0622 µM in series [5]. Further, the CC50 at 4 days in series [4] was determined as 2.65 µM.
